Test results taken from article PMC11982291 (Communications Biology, 2025).

Assays:
XRN2 = target: T1, XRN2 (Homo sapiens, UniProt Q9H0D6); assay: SPR; format: binding
T1 sequence (Q9H0D6 1-790): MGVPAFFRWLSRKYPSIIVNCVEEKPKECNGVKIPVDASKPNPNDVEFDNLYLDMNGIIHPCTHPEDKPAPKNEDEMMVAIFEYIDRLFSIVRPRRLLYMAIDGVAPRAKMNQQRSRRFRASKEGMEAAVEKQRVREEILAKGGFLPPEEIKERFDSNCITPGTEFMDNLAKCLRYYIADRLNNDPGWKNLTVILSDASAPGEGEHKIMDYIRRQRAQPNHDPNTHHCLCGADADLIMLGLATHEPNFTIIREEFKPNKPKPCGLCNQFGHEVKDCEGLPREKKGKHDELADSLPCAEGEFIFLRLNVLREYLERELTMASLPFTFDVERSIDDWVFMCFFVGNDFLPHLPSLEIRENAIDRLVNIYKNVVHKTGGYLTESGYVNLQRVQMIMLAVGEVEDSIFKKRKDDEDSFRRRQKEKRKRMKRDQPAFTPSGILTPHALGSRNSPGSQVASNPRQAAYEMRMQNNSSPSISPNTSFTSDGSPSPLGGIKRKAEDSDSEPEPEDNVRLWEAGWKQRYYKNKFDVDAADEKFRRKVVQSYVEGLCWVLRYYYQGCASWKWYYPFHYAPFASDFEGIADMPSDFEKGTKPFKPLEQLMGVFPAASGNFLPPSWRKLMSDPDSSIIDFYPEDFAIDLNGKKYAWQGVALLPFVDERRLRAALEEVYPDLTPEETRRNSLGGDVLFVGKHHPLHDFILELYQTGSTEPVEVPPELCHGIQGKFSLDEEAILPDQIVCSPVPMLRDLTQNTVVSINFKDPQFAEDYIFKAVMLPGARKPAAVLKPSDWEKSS

[1] = target: XRN1 (5’-3’ exoribonuclease 1) (Homo sapiens, UniProt Q8IZH2); assay: SPR; format: binding
XRN1 (5’-3’ exoribonuclease 1), sequence (Q8IZH2 1-1191): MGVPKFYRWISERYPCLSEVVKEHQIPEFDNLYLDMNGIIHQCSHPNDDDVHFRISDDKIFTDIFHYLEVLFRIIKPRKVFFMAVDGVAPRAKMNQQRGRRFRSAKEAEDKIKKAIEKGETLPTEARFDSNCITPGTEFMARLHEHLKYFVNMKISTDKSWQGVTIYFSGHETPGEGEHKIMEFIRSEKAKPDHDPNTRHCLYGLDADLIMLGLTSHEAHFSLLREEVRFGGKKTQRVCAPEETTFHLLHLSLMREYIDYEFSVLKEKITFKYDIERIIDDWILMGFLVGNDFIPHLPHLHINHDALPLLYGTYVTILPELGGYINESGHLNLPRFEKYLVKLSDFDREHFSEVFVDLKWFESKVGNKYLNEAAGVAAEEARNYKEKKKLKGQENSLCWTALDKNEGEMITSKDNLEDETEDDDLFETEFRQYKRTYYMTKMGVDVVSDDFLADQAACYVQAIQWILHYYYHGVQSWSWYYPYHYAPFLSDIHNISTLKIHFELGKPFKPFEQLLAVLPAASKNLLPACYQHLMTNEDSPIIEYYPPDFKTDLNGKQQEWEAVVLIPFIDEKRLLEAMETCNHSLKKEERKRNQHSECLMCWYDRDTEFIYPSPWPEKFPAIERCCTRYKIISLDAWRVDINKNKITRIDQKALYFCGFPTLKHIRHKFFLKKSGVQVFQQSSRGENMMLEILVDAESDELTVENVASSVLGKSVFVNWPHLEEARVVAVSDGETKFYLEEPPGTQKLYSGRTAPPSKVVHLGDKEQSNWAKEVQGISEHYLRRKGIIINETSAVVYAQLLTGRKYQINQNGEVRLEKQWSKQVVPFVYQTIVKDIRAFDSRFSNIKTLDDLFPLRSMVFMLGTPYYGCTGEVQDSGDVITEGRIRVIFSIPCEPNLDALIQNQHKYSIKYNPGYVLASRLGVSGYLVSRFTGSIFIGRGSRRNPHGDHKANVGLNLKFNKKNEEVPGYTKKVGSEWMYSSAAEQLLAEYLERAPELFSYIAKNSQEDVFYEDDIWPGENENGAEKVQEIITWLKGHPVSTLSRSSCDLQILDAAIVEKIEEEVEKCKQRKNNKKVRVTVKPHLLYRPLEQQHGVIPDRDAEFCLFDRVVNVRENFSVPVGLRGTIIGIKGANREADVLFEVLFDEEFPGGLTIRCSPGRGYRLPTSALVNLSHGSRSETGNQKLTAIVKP

Kd (XRN2): 14 ± 4 nM | Kd [1]: 12 ± 1 nM
Structure (SMILES): Nc1ncnc2c1ncn2[C@@H]1O[C@H](COP(=O)(O)O)[C@@H](OP(=O)(O)O)[C@H]1O [pAp, adenosine-3’,5’-bisphosphate]
